The source of these data is US10533029B1, “Anticancer trans-diaminoplatinum(II) complexes of selenones” (KING FAHD UNIVERSITY OF PETROLEUM AND MINERALS, priority 2018, dated 2020).

Data set [1] has as its system human cervical cancer HeLa cells. As to the kind of experiment: MTT in vitro cytotoxicity, HeLa. The data set is classed as cell-based. The settings on record: for cytotoxicity compared to cisplatin: HeLa cells; for IC50: HeLa, 72 h incubation, read-out: IC50 values against HeLa. Here is the method:
(§1) Solutions of Pt(II) complexes of selenone 1-7 and cisplatin at concentrations of 1.0 μM, 5.0 μM, 10.0 μM, 25.0 μM, and 50.0 μM were prepared in Dulbecco modified eagle medium (DMEM). The human cervical cancer cell line HeLa and human breast cancer cell line MDA-231 were seeded and maintained in quadruplicate in a 96-well tissue culture plate at 5×10^4 cells per well in 200 μL of the same medium. The cancer cells were incubated for 24 hours before treatment. All compounds were dissolved in 50% DMSO. Therefore DMSO was used as a negative control. The final DMSO concentration, in each well, was less than 0.1%. The cancer cells were treated with platinum complexes of compounds 1-7 and cisplatin, and the resulting cultures were incubated for 72 h. The medium of wells was discarded and 100 μL DMEM containing (5 mg/mL) MTT (3-(4,5-dimethylthiazol-2-yl)-2,5-diphenyltetrazolium bromide) was added to each well and the cultures incubated in a CO2 incubator at 37° C. in the dark for 4 hrs. After incubation, a purple colored formazan (artificial chromogenic dye, a product of the reduction of water […] tetrazolium salts e.g., MTT by dehydrogenases and reductases) in the cells is produced and appeared as dark crystals in the bottom of the wells. The medium of culture was discarded from each well carefully to avoid disruption of the monolayer. Isopropanol (100 μL) was added in each well. The solution was thoroughly mixed in the wells to dissolve the formazan crystals which results in a purple solution. The absorbance of the 96-well plate was measured at 570 nm with Mithras 2LB943 multimode microplate reader against reagent blank.
(§2) In vitro cytotoxicity of the platinum complexes of compounds 1-7 and cisplatin it DMSO were evaluated by the MTT assay against two human cancer cells namely, human cervical cancer HeLa cells and human breast cancer MDA-231 cells. The results of cytotoxicity are expressed, in terms of IC50 and listed m Table 7. The survival of the cells as a function of concentration of the platinum complexes of compounds 1-7 are graphically presented in FIGS. 4A and 4B. […] Recently, the anticancer properties of some other platinum(II) complexes of heterocyclic selenones have been reported [Altoum et al J. Coord. Chem. 70 (2017) 1020-1031; and. Altoum et al. Polyhedron, 128, 2-8 (2017), 42].

In data set [2] the test system is human breast cancer MDA-231 cells. The experiment in a line: MTT in vitro cytotoxicity, MDA-231. The data set is classed as cell-based. The settings on record: for cytotoxicity compared to cisplatin: MDA-231 (MDA-321 [sic]), MTT; for IC50: MDA-231, MTT, 72 h incubation, read-out: IC50 values against MDA-231. The procedure:
as §1, §2

The test system of a further data set is MCF7 cell line. As to the kind of experiment: MTT in vitro cytotoxicity, cell line MCF7. The data set is classed as cell-based, human.
A further data set relates to MCF7 cells. The settings on record: read-out: IC50, in vitro cytotoxicity against MCF7 cells, Mustafa (2015) and (2014); cited from earlier work.

In the case of `CC(C)N1CCNC1=[Se].CC(C)N1CCNC1=[Se].N.N.O=[N+]([O-])[O-].O=[N+]([O-])[O-].[Pt+2]` [Complex 6], the “cytotoxicity compared to cisplatin” value in data set [1] and in data set [2] was “enhanced cytotoxicity” throughout. The IC50 in data set [1] amounted to 3.1 µM; in data set [2], 5.7 µM.

With `N.N.NC(N)=[Se].NC(N)=[Se].O=[N+]([O-])[O-].O=[N+]([O-])[O-].[Pt+2]` [Complex 1, [Pt(NH3)2(Seu)2](NO3)2], in data set [1], the “cytotoxicity compared to cisplatin” value is recorded as “enhanced cytotoxicity” and the IC50 stood at 3.1 µM. For the same compound, in data set [2], the “cytotoxicity compared to cisplatin” value is given as “enhanced cytotoxicity” and the IC50 is 4.3 µM.

Take `CCCN1CCNC1=[Se].CCCN1CCNC1=[Se].N.N.O=[N+]([O-])[O-].O=[N+]([O-])[O-].[Pt+2]` [Complex 5, trans-[Pt(NH3)2(PrImSe)2](NO3)2]: the figures for the IC50 in data set [1] and in data set [2] were 6.9 µM and 4.7 µM, respectively. Moreover, the “cytotoxicity compared to cisplatin” value in the data set with MCF7 cell line is “greater cytotoxicity than cisplatin”.

For `CCN1CCNC1=[Se].CCN1CCNC1=[Se].N.N.O=[N+]([O-])[O-].O=[N+]([O-])[O-].[Pt+2]` [Complex 4, [Pt(NH3)2(EtImSe)2](NO3)2], in data set [1], the “cytotoxicity compared to cisplatin” value was “enhanced cytotoxicity” and the IC50 amounted to 2.1 µM. Besides, in data set [2], the “cytotoxicity compared to cisplatin” value is listed as “enhanced cytotoxicity” and the IC50 worked out at 4.4 µM.

On to `CCN1CCNC1=S.CCN1CCNC1=S.CCN1CCNC1=S.CCN1CCNC1=S.[Cl-].[Cl-].[Pt+2]` [[Pt(EtImt)4]Cl2], for which the IC50 in the data set with MCF7 cells was 11 µM.

“cis-(Pt(NH3)2Cl2) [Cisplatin, reference compound]”: the IC50 in data set [1] is 3.6 µM; in data set [2], 6.3 µM.

Turning to `CNC(=[Se])NC.CNC(=[Se])NC.N.N.O=[N+]([O-])[O-].O=[N+]([O-])[O-].[Pt+2]` [Complex 2, [Pt(NH3)2(Me2Seu)2](NO3)2], the entries for the “cytotoxicity compared to cisplatin” value (in data set [1]; in the data set with MCF7 cell line) were “more cytotoxic than cisplatin” and “less active”, respectively. Moreover, the IC50 in data set [1] stood at 2.3 µM; in data set [2], 7.4 µM.

`N.N.O=[N+]([O-])[O-].O=[N+]([O-])[O-].[Pt+2].[Se]=C1NCCN1.[Se]=C1NCCN1` [Complex 3, [Pt(NH3)2(ImSe)2](NO3)2]: the “cytotoxicity compared to cisplatin” value was “comparable cytotoxicity” in data set [1] and “less active” in the data set with MCF7 cell line. In addition, the IC50 amounted to 3.7 µM in data set [1] and 9.5 µM in data set [2].

Take `S=C1NCCCN1.S=C1NCCCN1.S=C1NCCCN1.S=C1NCCCN1.[Cl-].[Cl-].[Pt+2]` [[Pt(Diaz)4]Cl2]: the IC50 with MCF7 cells is 19.1 µM.

Take `N.N.O=[N+]([O-])[O-].O=[N+]([O-])[O-].[Pt+2].[Se]=C1NCCCCN1.[Se]=C1NCCCCN1` [Complex 7, [Pt(NH3)2(DiapSe)2](NO3)2]: the IC50 in data set [1] stood at 5.4 µM; in data set [2], 5.3 µM.

By IC50 is commonly meant the concentration at which inhibition is half-maximal.
